Data published in patent US10662475B2, “Compositions and methods for the treatment and prevention of antipsychotic medication-induced weight gain” (Centre for Addiction and Mental Health, priority 2014, dated 2020).
Values belong to the compound of their own block, whether it stands above or below them.

Legend:
TSPO = biological target: T1, TSPO (Mus musculus, UniProt P50637); details: high-fat diet induced obese mice; cited from earlier work
T1 construct: host or cells: high-fat diet induced obese mice (in vivo)

[1] = total sample N=128, patients treated with clozapine, risperidone, olanzapine or haloperidol
[2] = Antipsychotic-induced weight change, orexin receptor (HCRTR1/HCRTR2) SNP association study; type: in vivo, human; details: Sample HYM n = 74, all on clozapine, 6 weeks
Excerpt: Written informed consent was obtained from all participants. […] Exclusion criteria for these studies included pregnancy, organic brain disorder, severe head injuries, previous medical conditions which required treatment and were not stable (Hepatitis C, HIV, Thyroid disorder or diabetes mellitus), substance dependence, clinically relevant mental retardation and severe personality disorder.
Genomic DNA was extracted from blood samples using the high-salt method (Lahiri and Nurnberger 1991). […] A total of 5 tagSNPs covering a 20 kb region including HCRTR1 (˜9.6 kb) and 28 tagSNPs covering 120 kb including HCRTR2 (˜108 kb) were included in this study.
Analysis of covariance (ANCOVA) was used to test association between genotype and weight change (%) from baseline as the dependent variable, genotypes as fixed factor and, baseline weight and duration of treatment as covariates. Corrections for multiple tests were calculated using Single Nucleotide Polymorphism Spectral Decomposition (SNPSpD, (Nyholt 2004)). Power calculations were performed using Quanto 1.2.4 (Gauderman and Morrison 2006). Assuming a minor allele frequency of 0.25 and a sample size of n=130, we had more than 80% power to detect a mean difference of 3.6% between carriers and non-carriers of the risk genotype in an additive or dominant model.

[3] = for weight gain (% change from baseline weight): total sample, European ancestry subjects with schizophrenia or schizoaffective disorder, by antipsychotic, mean ± SD
Experimental: Our sample comprised 66 European ancestry subjects aged 18-60 years with schizophrenia or schizoaffective disorder according to Diagnostic and Statistical Manual of Mental Disorders, Third Edition, Revised, or Fourth Edition (DSM-IIIR or DSM-IV) criteria.
Patients with a history of treatment refractory schizophrenia or schizoaffective disorder, or intolerance to typical antipsychotics, were treated with clozapine for 6 weeks and assessed for response and weight gain. These patients had never received a second generation antipsychotic prior to enrollment in the study, and underwent a 7-14 day washout period where they received no antipsychotic medication prior to receiving clozapine.
All analyses were done using R version 2.15.1 statistical software (R Core Team, 2012), with the rms package. Categorical variables were compared across study centres using Pearson chi-square test and continuous variables were compared using ANOVA, unless the assumptions of these tests were violated in which case Fisher's exact test and the Kruskal-Wallis test were used. Linear regression was used to test for differences in weight gain (% change from baseline weight) between genotypic groups using additive genotypic model with adjustment for relevant covariates.

[4] = adjunct treatment, human studies; cited from earlier work
GLP-1 = details: rat models; effects seem to occur after a longer treatment period; cited from earlier work

Structure (SMILES): CCC(C)N(C)C(=O)c1cc2ccccc2c(-c2ccccc2Cl)n1 (centres unmarked) [PK1195]
- lipid accumulation in the liver, free and LDL cholesterol, and blood glucose levels (TSPO): significantly lowered

- weight gain [1]: highest weight gain
- Weight gain <7%, n (%) [2]: 47 (63.5) n (%)
- Weight gain ≥7%, n (%) [2]: 27 (36.5) n (%)
- Weight change ([2]; mean ± SD): 3.76 ± 4.4 kg
- Weight change (%) ([2]; mean ± SD): 5.35 ± 6.3%
- Weight change ± SD (%) ([3]; Sample HYM n = 54, all on clozapine, 6 weeks): 3.84 ± 5.8%
- weight gain (% change from baseline weight) [3]: 3.99%±5.8
Structure (SMILES): CN1CCN(C2=Nc3cc(Cl)ccc3Nc3ccccc32)CC1 [clozapine]

- weight gain (% change from baseline weight) [3]: −4.17%±15.2
Structure (SMILES): O=C(CCCN1CCC(O)(c2ccc(Cl)cc2)CC1)c1ccc(F)cc1 [haloperidol]

Structure (SMILES): CC(=O)[C@H]1CC[C@H]2[C@@H]3CC=C4C[C@@H](O)CC[C@]4(C)[C@H]3CC[C@]12C [pregnenolone]
- symptoms of schizophrenia [4]: improves symptoms of schizophrenia

Structure (SMILES): OCCOCCN1CCN(C2=Nc3ccccc3Sc3ccccc32)CC1 [quetiapine]
- GLP-1 levels (GLP-1): decrease GLP-1 levels
